Laboratory results published in US20070065805A1, “Cell migration assay” (GE Healthcare Bio-Sciences Corp., priority 2005, published 2007).
“Also recorded” adds a separate entry of the source.

Columns and labels:
neutrophil TEM = test: Neutrophil transendothelial migration (TEM) assay, 96-well collagen gel/HUVEC monolayer; assay type: cell-based, human; conditions: for Inhibition of neutrophil TEM: neutrophil pre-treated with inhibitor (1, 10-phenathronoline 12-1000 μM) for 0.5 hour, inhibitor present throughout the TEM assay, migrated cells counted at Z: 60 μm (FIG. 10)
Protocol: (§1) A 96-well plate (ViewPlate™, PerkinElmer Life and Analytical Sciences) was set on ice and 40 μl of gel (2.5 mg/ml) was dispensed into each well using stepper repeat pipette (500 or 1000 tip). The plate was spun at 1,500 rpm for 2 min at 4° C. The gel was solidified at 37° C. in a CO2-free incubator to establish a thick layer (200 μm) of collagen gel onto a well of 96-well plate. The following TEM assays were performed using collagen gel prepared in this manner.
The layer of collagen gel in each well was coated with 200 μl of 1 μg/ml human fibronectin (BD Biosciences) in serum-free EGM-2 medium for 1 hour at room temperature. After removal of the fibronectin containing-medium, HUVEC cells (CAMBREX) were seeded onto the gel and cultured in the EGM-2 medium for 3 days, at 37° C., and at a concentration of 40,000 cells/well. The cells were chosen from early passage (3rd to 4th), 70-80% confluent HUVEC cell cultures. The day before the assay, the HUVEC culture medium was replaced with either fresh EGM-2 medium alone, or the fresh EGM-2 medium containing 10 ng/ml IL-1 β (or TNF-α, or other chemoattractants). The mixture was incubated overnight to stimulate TEM.
Neutrophil or peripheral blood mononuclear cells (PBMC) were freshly isolated from blood Buffy coat. Briefly, RBC were removed using dextran sedimentation. Then PBMC were isolated by Ficoll-Hypaque centrifugation. Neutrophils were purified by hypotonic lysis of remaining RBC in the pellet of Ficoll-Hypaque centrifugation. The cells were labelled with CellTracker™ Green, by incubation in 0.5 to 1 μm dye in RPMI for 45 min at 37° C. The dye containing RPMI was removed and the cells washed once with serum-free RPMI medium. The cells were re-suspended in RPMI containing 0.2% HAS (assay medium) at 2.5×10^6 cells/ml.
On the assay day, the culture medium for the HUVEC cell culture was removed and the HUVEC monolayer washed 2 times with PBS and once with assay medium (0.2% of HAS in RPMI). 500,000 (200 μl) neutrophil or PBMC, which were CellTracker™ Green labelled, were placed on top of the HUVEC monolayer in each well. The assay was incubated further at 37° C. The length of time for the incubation is primary cell type dependent. For neutrophil, incubation time is within 2 hours and for PBMC, from 6 to 10 hours may be required.
(§2) After the required incubation time, images of neutrophil/PBMC cells which had migrated below the HUVEC layer were acquired. Often, it is sufficient to acquire images at a single Z position and quantify the number of migrated cells in the gel at targeted Z position. As an example, images at the 120 μm Z plane were quantified using the Z-slicing feature of IN Cell Analyzer 3000 (GE Healthcare). Images were analysed using the Object Intensity analysis module. The experiments were repeated multiple times, such that each data point—in the Figures—represents mean plus/minus standard deviation of 6 replicate wells, one Z plane of image/well.
Prior to the TEM assay, neutrophil were pre-treated with 1, 10-phenathronoline, a MMP-9 inhibitor (12-1000 μM) for 0.5 hour. The inhibitor was continuously present throughout the TEM assay. […] Each data point in FIG. 10 represents mean plus/minus SD of 6 replicate wells, one image/well at Z: 60 μm.

PBMC TEM = test: PBMC transendothelial migration (TEM) assay, 96-well collagen gel/HUVEC monolayer; assay type: cell-based, human; conditions: HUVEC incubated overnight with 10 ng/ml IL-1 β
Protocol: as §1
The layer of collagen gel in each well was coated with 200 μl of 1 μg/ml human fibronectin (BD Biosciences) in serum-free EGM-2 medium for 1 hour at room temperature. After removal of the fibronectin containing-medium, HUVEC cells (CAMBREX) were seeded onto the gel and cultured in the EGM-2 medium for 3 days, at 37° C., and at a concentration of 40,000 cells/well. The cells were chosen from early passage (3rd to 4th), 70-80% confluent HUVEC cell cultures. […]
as §2, with “The experiments were repeated multiple times, such that each data point—in the Figures—represents mean plus/minus standard deviation of 6 replicate wells, one Z plane of image/well.” left out

c1cnc2c(c1)ccc1cccnc12 [1, 10-phenathronoline, reference compound]
Inhibition of neutrophil TEM (neutrophil TEM): inhibits neutrophil TEM; also recorded: Inhibition of neutrophil TEM

Interleukin-1-beta [IL-1β]
Stimulation of neutrophil TEM (neutrophil TEM; HUVEC incubated overnight with 10 ng/ml IL-1 β): potentiate transendothelial migration of both cell types | Time for neutrophil TEM to reach a significant signal to noise ratio (IL-1β stimulated vs. non-stimulated) (neutrophil TEM; migrated cells quantified at Z: 120 μm, FIG. 7): 0.5 to 2 h | Stimulation of PBMC TEM (PBMC TEM): potentiate transendothelial migration of both cell types

C[C@H]1c2cccc(O)c2C(O)=C2C(=O)[C@]3(O)C(O)=C(C(N)=O)C(=O)[C@@H](N(C)C)[C@@H]3[C@@H](O)[C@@H]21 [doxycyclin, reference compound]
Inhibition of neutrophil TEM (neutrophil TEM): showed to inhibit TEM

Interleukin-8 [IL-8]
Effect of IL-8 soaking on neutrophil TEM (neutrophil TEM; collagen gel pre-soaked with culture medium containing IL-8 at 200 ng/ml for 4 hours): increase of neutrophil TEM; also recorded: generates a TEM effect similar to that of IL-1 β activation of HUVEC
